Results reported in patent US10166177B2, “Silk protein fragment compositions and articles manufactured therefrom” (Silk, Inc., priority 2013, dated 2019).

Key:
Format in all cases: physicochemical
[1] = Gel formation with vitamin C derivatives in 2% silk solution; settings: 100 mg of vitamin C derivative in 15 mL of 2% silk solution
Protocol: The Tables in FIGS. 89A-89B summarize embodiments of gels of the present disclosure. Ascorbic acid-2-glucoside was the most successful vitamin C derivative at gel formation with gel being formed in a 2% silk solution in 3 days. […] In all cases 100 mg of vitamin C derivative was mixed in 15 mL of 2% silk solution, and all gels had the same appearance as gels created with ascorbic acid.
Gels were also cast with combinations of two vitamin C options. In each case, at least one of the vitamin C options was known to cause gelation (L-ascorbic acid or ascorbic acid-2-glucoside). All combination gels were able to gel at 1% total vitamin C additive concentration. […] Without wishing to be bound by theory, it appears there is a relationship between vitamin C concentration, silk concentration, and gelation. An increase in vitamin C at a given concentration of silk will result in a longer time to gelation or inhibit gelation. This may be due to the vitamin C molecule physically blocking interaction between silk protein fragments or cross-linking of silk protein. Modification to pH may allow additional concentrations of vitamin C and derivatives thereof to be added.

[2] = Dissolution of vitamin C derivative in aqueous silk solution
Text: Ascorbyl tetraisopalmitate is a highly viscous, oil soluble liquid that might need the help of an emulsifier to possible dissolve in aqueous silk solution.

[3] = HPLC chromatograms of vitamin C samples (degradation products); settings: after 1 hour at ambient conditions without chemical stabilization
Protocol: FIGS. 36A and 36B show HPLC chromatograms from samples comprising vitamin C. […] No degradation products were visible.
FIGS. 36A and 36B show two HPLC chromatograms from samples comprising vitamin C. […] No degradation products were visible. FIG. 59 is a table summarizing the vitamin C concentration in silk protein fragment-films (2% silk films air dried at RT) of the present disclosure. In FIG. 59 processing conditions included 100° C. extraction for 20 min, RT rinse, LiBr in 60° C. oven for 4-6 hours. FIG. 60 is a table summarizing the stability of vitamin C in chemically stabilized solutions. FIGS. 89A-89B are tables summarizing vitamin C stability in SPF gels without chemical stabilizers as compared to chemically stabilized vitamin C in competitive anti-aging skincare products. […] Without wishing to be bound by theory, it appears there is a relationship between vitamin C concentration, silk concentration, and gelation. An increase in vitamin C at a given concentration of silk will result in a longer time to gelation or inhibit gelation. This may be due to the vitamin C molecule physically blocking interaction between silk protein fragments or cross-linking of silk protein.

Row | SMILES | time to gel formation [1] | other results
1 | O=C1O[C@H]([C@@H](O)CO)C(O)=C1O[C@H]1O[C@H](CO)[C@@H](O)[C@H](O)[C@H]1O [Ascorbic acid-2-glucoside] | 3 days | –
2 | CCCCCCCCC(CCCCCC)C(=O)OC[C@H](OC(=O)C(CCCCCC)CCCCCCCC)[C@H]1OC(=O)C(OC(=O)C(CCCCCC)CCCCCCCC)=C1OC(=O)C(CCCCCC)CCCCCCCC (some centres unmarked) [Ascorbyl tetraisopalmitate] | – | ability to dissolve or be dispersed in aqueous silk solution [2]: unable to dissolve or be dispersed
3 | O=C1O[C@H]([C@@H](O)CO)C([O-])=C1OP(=O)([O-])[O-].[Na+].[Na+].[Na+] [Sodium Ascorbyl Phosphate (Aromantic), Sodium Ascorbyl Phosphate] | failed to create a gel | –
4 | O=C1O[C@H]([C@@H](O)CO)C([O-])=C1OP(=O)([O-])[O-].[Na+].[Na+].[Na+] [Sodium ascorbyl phosphate from DSM, Sodium ascorbyl phosphate] | 28 days | –
5 | O=C1O[C@H]([C@@H](O)CO)C(O)=C1O [vitamin C, L-ascorbic acid] | – | vitamin C degradation products (HPLC) [3]: degradation products are visible
